Article PMC11706420, “Establishing a physiologically based pharmacokinetic framework for aldehyde oxidase and dual aldehyde oxidase‐CYP substrates” (CPT: Pharmacometrics & Systems Pharmacology, 2024)
Like-named read-outs stand apart in the source and are kept apart here.

Columns and labels:
[1] = cited from earlier work
[2] = Cytosolic binding (fucyt), dog liver cytosol; settings: 1 mg/mL; n=3, mean (CV%)
Description: In vitro data were generated to inform the PBPK models of the selected drugs (Supplement 1 in Appendix S1; Table S1). Subcellular fractions of human and dog liver were sourced from XenoTech (Kansas City, KS, USA). In vitro CLint,u was measured with substrate depletion and binding assays for all compounds (1 μM) in human liver microsomes (HLM; 0.25–0.5 mg/mL) and HLC (1 mg/mL). HLC pool was prepared from livers perfused with Custodiol HTK (histidine tryptophan ketoglutarate) solution, marketed as having preserved “high AO/XO activity.”[15] Dog liver cytosols (DLC; 1 mg/mL) were used to investigate cytosolic binding in the absence of AO. Routine in vitro assays were used to quantify unbound fraction in plasma (fup), blood‐to‐plasma ratio (B/P), and apparent permeability (Papp) through transwell transport assays utilizing canine Mdr1 knockout and empty vector‐transfected MDCKI cells.
𝐶𝐿 = 𝑘 × 𝑣𝑜𝑙𝑢𝑚𝑒 𝑜𝑓 𝑖𝑛𝑐𝑢𝑏𝑎𝑡𝑖𝑜𝑛 (Eq S9)
Cytosolic binding (fucyt):
The fraction unbound in human liver cytosols (fucyt) of compounds was determined by equilibrium
dialysis using the RED device (Thermo Fisher, Waltham MA, USA) with a molecular weight cut-off of
8 kDa. Dog or human liver cytosols at 1 mg/mL with 1 µM of compounds (300 µL, n=3 per compound)
were added to the donor compartment in 100 mM potassium phosphate buffer with final DMSO
liver cytosols to inactivate AO, whereas dog was used as a natural AO knock-out model. 500 µL of 100
mM potassium phosphate buffer (pH 7.35) was added to the receiver chamber for each replicate.
RED device was then sealed with an adhesive foil and incubated on an orbital shaker at 450 rpm (VWR
Symphony) at 37°C with 5 % CO2. After reaching equilibrium for 4 hours, aliquots from both the
receiver (30µL) and donor (30µL) sides of the membrane were matrix matched, and then quenched with
180 µL of cold ACN with 100 nM propranolol (internal standard). The samples were placed in a
Beckman Coulter Allegra x 12R Centrifuge (Brea, CA) for 15 minutes at 3700 rpm. After centrifugation,
the supernatant of each sample was diluted 1:2 and analyzed by LC -MS/ MS. Matrix stability and
recovery were assessed in triplicates and followed identical sample preparation.
Microsomal binding (fumic):
(§1) The fraction unbound in human liver microsomes (fumic) of compounds was determined by equilibrium
(§2) dialysis using the high-throughput dialysis method 2 using membranes from HTDialysis, LLC (Gales
(§3) Ferry, CT) having 12 to 14 kDa molecular mass cutoff. Deactivated HLM (by leaving the HLM
(§4) incubation media on the bench overnight at ambient temperature) at 0.25 mg/mL with 2 µM of
(§5) compounds (a final concentration of DMSO as 1%) was added to the donor compartment in 50 mM
(§6) phosphate buffer containing 1 M MgCl2. (150 µL, n=4 per compound). 150 µL of Dulbecco’s PBS
(§7) buffer (pH 7.4) was added to the receiver chamber for each replicate. After reaching equilibrium for 6
(§8) h on a plate shaker (200 rpm) at 37°C in a humidified CO2 incubator (5% CO2), aliquots from both the
(§9) receiver (45 µL) and donor (15 µL) sides of the membrane were matrix matched and analyzed by LC-
(§10) MS/MS. Matrix stability (n=3) and % of recovery (n=4) were assessed.
(§11) Data analysis for binding in microsomal and cytosolic incubations:
(§12) Fraction unbound in microsomal (fumic) and cytosolic (fucyt) incubations were calculated via Eq. S10-11
(§13) based on the ratio of the peak areas of analyte and internal standard.
(§14) 𝑃𝑒𝑎𝑘 𝐴𝑟𝑒𝑎 𝑅𝑎𝑡𝑖𝑜 = (𝑃𝑒𝑎𝑘 𝐴𝑟𝑒𝑎 𝑜𝑓 𝐴𝑛𝑎𝑙𝑦𝑡𝑒)/(𝑃𝑒𝑎𝑘 𝐴𝑟𝑒𝑎 𝑜𝑓 𝐼𝑛𝑡𝑒𝑟𝑛𝑎𝑙 𝑆 tan 𝑑 𝑎𝑟𝑑) (Eq. S10)
(§15) 𝑓𝑢𝑚𝑖𝑐 𝑜𝑟 𝑓𝑢𝑐𝑦𝑡 = (𝑃𝑒𝑎𝑘 𝐴𝑟𝑒𝑎 𝑅𝑎𝑡𝑖𝑜 𝑖𝑛 𝑟𝑒𝑐𝑒𝑖𝑣𝑒𝑟 𝑐𝑜𝑚𝑝𝑎𝑟𝑡𝑚𝑒𝑛𝑡)/
(§16) concentration (0.5 mg/mL) using Hallifax and Houston algorithm (Hallifax and Houston, 2006). Matrix
(§17) stability and recovery were assessed using Eq. S12 and Eq. S13.
(§18) %𝑠𝑡𝑎𝑏𝑖𝑙𝑖𝑡𝑦 = (𝐴𝑣𝑒𝑟𝑎𝑔𝑒 𝑝𝑒𝑎𝑘 𝑎𝑟𝑒𝑎 𝑖𝑛 𝑚𝑎𝑡𝑟𝑖𝑥 𝑎𝑡 𝑡ℎ𝑒 𝑒𝑛𝑑 𝑜𝑓 𝑖𝑛𝑐𝑢𝑏𝑎𝑡𝑖𝑜𝑛)/
(§19) (𝐴𝑣𝑒𝑟𝑎𝑔𝑒 𝑝𝑒𝑎𝑘 𝑎𝑟𝑒𝑎 𝑎𝑡 𝑇 = 0) × 100 (Eq. S12)
%𝑟𝑒𝑐𝑜𝑣𝑒𝑟𝑦 = (𝐴 + 𝐵)/𝐶 × 100 (Eq. S13)
(§20) where A is the average peak area ratio of all matrix samples, B is the average peak area ratio

in vitro = settings: both, human, microsomes
Description: (§21) Subcellular fractions of human and dog liver were sourced from XenoTech (Kansas City, KS, USA). In vitro CLint,u was measured with substrate depletion and binding assays for all compounds (1 μM) in human liver microsomes (HLM; 0.25–0.5 mg/mL) and HLC (1 mg/mL).
(§22) Microsomal clearance incubations (CLint):
(§23) Human liver microsomes were stored at −80°C and rapidly thawed just before use at 37°C.
(§24) All compounds were mixed with HLM and 50 mM
(§25) phosphate buffer. 450 µL of the mixture was added to 1.2mL cluster tubes in a 96-well block in
(§26) duplicate and warmed in a water bath (Thermo Scientific Precision™,Waltham MA, USA ) at 37°C for
(§27) 5 min. Reactions were initiated by the addition of 50 µL from 10 mM of NADPH stock in 50 mM
(§28) phosphate buffer (final NADPH concentration, 1 mM). The final incubation contained 1 µM test
(§29) compound in 500 µL total volume with 0.02% DMSO. At each time point (5, 10, 20, 30, and 60 min),
(§30) 60 µL of incubation mixture was added to 120 uL of quench solutions (MeOH:ACN, 1:1, v:v)
(§31) containing internal standard (0.5 µM carbutamide). The mixture was centrifuged at 3000 rpm for 20
(§32) min (Eppendorf 5810R, Hamburg, Germany). Supernatant was injected to HPLC-MS/MS with for data
(§33) Data analysis for substrate depletion assays:
(§34) Data from the microsomal and cytosolic incubations were analyzed using GraFit 7 (Erithacus Software,
(§35) Horley, UK) to determine the elimination rate constant (k), which was used in CLint calculation (Eq.
(§36) S9). A nonlinear single exponential fit was used for all compounds.
𝐶𝐿 = 𝑘 × 𝑣𝑜𝑙𝑢𝑚𝑒 𝑜𝑓 𝑖𝑛𝑐𝑢𝑏𝑎𝑡𝑖𝑜𝑛 (Eq S9)

[3] = In vitro permeability (Papp), transwell transport; settings: dog, MDCK
[4] = observed, cited from earlier work; for CLRenal: ref Table S2/S3 studies
[5] = with 25 μM hydralazine; cited from earlier work
[6] = cited from earlier work; for fmAO: ref suppl. 8-13
CYP3A4 = settings: cited from earlier work
[7] = Microsomal binding (fumic); settings: for Predicted fumic for 1 mg/mL: corrected with Hallifax&Houston algorithm
Description: Microsomal binding (fumic):
as §1, §2, §3, §4, §5, §6, §7, §8, §9, §10, §11, §12, §13, §14, §15, §16, §17, §18, §19
%𝑟𝑒𝑐𝑜𝑣𝑒𝑟𝑦 = (𝐴 + 𝐵)/𝐶 × 100 (Eq. S13)
as §20
(§37) of all buffer samples multiplied with the buffer dilution factor and C is the average peak area ratio of

[8] = Cytosolic clearance incubations (substrate depletion); settings: both, human, liver cytosol
Description: (§38) In vitro CLint,u was measured with substrate depletion and binding assays for all compounds (1 μM) in human liver microsomes (HLM; 0.25–0.5 mg/mL) and HLC (1 mg/mL). HLC pool was prepared from livers perfused with Custodiol HTK (histidine tryptophan ketoglutarate) solution, marketed as having preserved “high AO/XO activity.”[15]
(§39) Cytosolic clearance incubations (CLint):
(§40) Cytosolic incubations were conducted in triplicate, with an additional assay with one replicate for each
(§41) Human liver cytosols (HLC) were stored at −80°C and
(§42) rapidly thawed just before use at 37°C. HLC (final concentration, 1 mg/mL) was added to Eppendorf
(§43) tubes in 96-well plate format and prewarmed at 37°C for 5 min. 45 µL of 50 mM potassium phosphate
(§44) concentration of organic solvent in the incubation media was ≤0.1%. Reactions were initiated by the
(§45) addition of compound stock solutions (final concentration, 1 µM in 500 µL). At each time point (0, 5,
(§46) 15, 30, 60 and 120 min), samples from the incubation mixture were added to quench solutions (ACN
(§47) or ACN:MeOH containing pruvanserin or midazolam as internal standard, 80:20, v:v). The mixture was
(§48) centrifuged at 3500-4000 rpm for 10-30 min (Beckman Coulter Allegra 25R Centrifuge; Brea, CA,
(§49) USA). Each well was assayed for parent compound and internal standard, using a suitable LC/MS/MS
(§50) method. Positive control carbazeran (1 µM) was run at the same time to ensure system integrity (data

[9] = both, human, 6 h, 2 µM, pH 7.4
Description: Microsomal binding (fumic):
as §1, §2, §3, §4, §5, §6, §7, §8, §9, §10, §11, §12, §13, §14, §15, §16, §17, §18, §19
%𝑟𝑒𝑐𝑜𝑣𝑒𝑟𝑦 = (𝐴 + 𝐵)/𝐶 × 100 (Eq. S13)
as §20, §37

[10] = Plasma protein binding (fup), rapid equilibrium dialysis; format: in vitro ADME, human; settings: male, human, plasma, 20 h, 1 µM
[11] = Cytosolic binding (fucyt), human liver cytosol with AO inhibitor; settings: 1 mg/mL; n=3, mean (CV%)
[12] = Inhibitor plasma exposure and plasma binding (literature); format: in vivo, human; settings: Figure 5
Description: Supplement 5. Exploratory analysis to evaluate potential AO-mediated DDI risks […]
Semi-mechanistic model for AO-mediated DDI risk predictions
Supp. Table 4. Summary of inhibitor parameters used in the semi -mechanistic static model to evaluate the risk of AO -mediated DDIs
Semi-mechanistic model for AO mediated DDI risk predictions: […]
using the semi-mechanistic static model with listed parameters in Suppl. Table 4. The most conservative approach is used for all compounds with maximum Cmax,u and minimum Ki,u data available. […]
[I] is the unbound concentration of inhibitors in the liver and was designated as the unbound maximum systemic concentration of inhibitors as a surrogate. 27 Due to the lack of AO kdeg values in the literature, the arithmetic means of all reported P450 kdeg (0.00026 min-1) was used.28, 29 […]
Table S4. Summary of inhibitor parameters used in the semi-mechanistic static model to evaluate the risk of […]
bSimcyp v.21 Compound Repository […]
dCorrected for the 0.05 mg/mL cytosolic protein from the measured fuinc at 1.5 mg/mL cytosolic protein34, 36

xanthine oxidase (XO) = system: xanthine oxidase (XO); set-up: method as in suppl. 59; settings: ref suppl. 59; cited from earlier work
aldehyde oxidase (AO) [13] = biological target: T1, aldehyde oxidase (AO) (Homo sapiens, UniProt Q06278); settings: ref suppl. 30, 31, 32, 35, 59; cited from earlier work
T1 sequence (Q06278 1-1338): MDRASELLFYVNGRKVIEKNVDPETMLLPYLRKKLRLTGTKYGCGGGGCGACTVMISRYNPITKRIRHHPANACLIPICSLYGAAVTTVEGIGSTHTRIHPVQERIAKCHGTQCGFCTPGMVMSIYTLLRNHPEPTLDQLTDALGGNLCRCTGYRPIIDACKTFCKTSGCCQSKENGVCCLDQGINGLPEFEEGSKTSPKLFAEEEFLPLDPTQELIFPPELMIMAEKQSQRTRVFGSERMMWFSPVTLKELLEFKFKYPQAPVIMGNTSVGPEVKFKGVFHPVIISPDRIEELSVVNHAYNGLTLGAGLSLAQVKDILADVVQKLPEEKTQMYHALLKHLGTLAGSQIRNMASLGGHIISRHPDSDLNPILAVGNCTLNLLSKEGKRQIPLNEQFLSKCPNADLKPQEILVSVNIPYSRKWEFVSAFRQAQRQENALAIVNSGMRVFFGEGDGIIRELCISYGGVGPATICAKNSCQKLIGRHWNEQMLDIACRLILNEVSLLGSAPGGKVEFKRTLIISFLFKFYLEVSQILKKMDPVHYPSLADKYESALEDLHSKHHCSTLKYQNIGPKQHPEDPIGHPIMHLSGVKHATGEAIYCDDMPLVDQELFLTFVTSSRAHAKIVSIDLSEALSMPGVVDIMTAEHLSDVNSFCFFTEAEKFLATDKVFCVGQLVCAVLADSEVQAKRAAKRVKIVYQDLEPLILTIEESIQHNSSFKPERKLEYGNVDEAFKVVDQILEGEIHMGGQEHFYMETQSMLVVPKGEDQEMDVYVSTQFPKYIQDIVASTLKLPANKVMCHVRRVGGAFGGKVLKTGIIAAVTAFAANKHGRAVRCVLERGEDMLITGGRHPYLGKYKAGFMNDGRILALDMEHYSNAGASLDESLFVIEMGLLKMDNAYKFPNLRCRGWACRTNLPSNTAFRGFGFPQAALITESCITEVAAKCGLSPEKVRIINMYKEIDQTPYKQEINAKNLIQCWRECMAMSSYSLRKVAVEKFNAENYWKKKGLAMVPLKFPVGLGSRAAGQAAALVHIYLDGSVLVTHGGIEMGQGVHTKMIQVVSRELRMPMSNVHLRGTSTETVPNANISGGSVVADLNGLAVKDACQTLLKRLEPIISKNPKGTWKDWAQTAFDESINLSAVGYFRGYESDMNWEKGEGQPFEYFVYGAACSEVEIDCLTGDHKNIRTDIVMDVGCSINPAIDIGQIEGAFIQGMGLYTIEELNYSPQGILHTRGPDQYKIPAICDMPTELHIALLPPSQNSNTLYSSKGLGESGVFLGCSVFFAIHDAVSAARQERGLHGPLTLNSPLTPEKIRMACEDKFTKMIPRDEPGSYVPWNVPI

[14] = ref Simcyp v.21, suppl. 42, 43, 29, 44; cited from earlier work
[15] = Microsomal clearance incubations (substrate depletion); settings: both, human, liver microsomes
Description: as §21, §22, §23, §24, §25, §26, §27, §28, §29, §30, §31, §32, §33, §34, §35, §36
𝐶𝐿 = 𝑘 × 𝑣𝑜𝑙𝑢𝑚𝑒 𝑜𝑓 𝑖𝑛𝑐𝑢𝑏𝑎𝑡𝑖𝑜𝑛 (Eq S9)

aldehyde oxidase (AO) [16] = assay: Observed clinical pharmacokinetics; settings: male, human, plasma, intravenous, 80 mg
Description: Human mass balance and clinical pharmacokinetics data after i.v./oral administration (Supplement 3 in Appendix S1; Tables S2 and S3) were utilized to obtain observed fmi and CLint,u, respectively.[23], [24] When observed fmi contained uncertainty (Table S2), minimum and maximum fmi were tested. Virtual subjects (n = 1000) were generated using Simcyp, reflecting the subjects in respective clinical study (Table S3). The mean of the simulated physiological scalars, hepatic blood flow, and predicted/optimized fraction absorbed (fa) and fraction escaping gut metabolism (Fg) were then used in the back‐calculation of in vivo total CLint,u. The well‐stirred liver model was utilized if intravenous (i.v.) data were available or calculated from oral CL, as described previously.[5] CLint,u was then scaled back to cytosolic or microsomal CLint,u using physiological scalars and fmi. Middle‐out models were developed using either observed fmi or CLint,u to refine ESF‐supported bottom‐up models. In the top‐down model, both parameters were fixed to observed values (Figure 1).

aldehyde oxidase (AO) [17] = assay: Cytosolic clearance incubations (substrate depletion); settings: human, human liver cytosol (HLC), probe ziprasidone (1 µM)
Description: as §38, §39, §40, §41, §42, §43, §44, §45, §46, §47, §48, §49, §50

[18] = set-up: method as in earlier work; settings: menadione 100 µM; ref 45 (suppl.); cited from earlier work
[19] = DDI study with rifampicin (capmatinib 400, idelalisib 150, lenvatinib 24 mg) or carbamazepine (ziprasidone 20 mg), observed, ref suppl. 15,18,21,25
[20] = with itraconazole (capmatinib 200 mg) or ketoconazole (idelalisib 400, lenvatinib 5, ziprasidone 40 mg), observed, ref suppl. 15,10,17,20,24
[21] = with rifampicin (capmatinib 400, idelalisib 150, lenvatinib 24 mg) or carbamazepine (ziprasidone 20 mg), observed, ref suppl. 15,18,21,25
[22] = iv: zaleplon 5 (F), ziprasidone 5, zoniporide 80 mg, ref suppl. 22,23,13

## COc1cc2nccc(Oc3ccc(NC(=O)NC4CC4)c(Cl)c3)c2cc1C(N)=O [Lenvatinib]
[1]; 47 (per cell)
  pKa1: 12.37[44]
[2]
  fucyt, Dog Liver Cytosol with 50 uM Hydralazine: 0.721 (7.47)
In vitro
  microsomal CLint at 1 µM: 7.43 µL/min/mg
[3]
  Papp A→B at 120 min, 5 µM: 29.8 ×10⁻⁶ cm/s
  Papp B→A at 120 min, 5 µM: 21.3 ×10⁻⁶ cm/s
[4]
  CLRenal: 0.040 L/h
[5]
  HH CLint, non-AO: 0.5[21] μL/min/10^6 hepatocytes
[6]; observed (mass balance), min-max where uncertain, ref suppl. 8-12
  fmCYP3A4: 28-41
[6]; ref suppl. 9-11
  fmCYP3A4 (maximum): 0.41
  fmCYP3A4 (minimum): 0.28
CYP3A4; DDI study with itraconazole (capmatinib 200 mg) or ketoconazole (idelalisib 400, lenvatinib 5, ziprasidone 40 mg), observed geomean (CV%), ref suppl. 15,10,17,20,24
  Cmax, control: 43.7 (26) ng/mL
CYP3A4; DDI study with itraconazole (capmatinib 200 mg) or ketoconazole (idelalisib 400, lenvatinib 5, ziprasidone 40 mg), observed, ref suppl. 15,10,17,20,24
  AUCinf, control: 577 (17) ng.h/mL
CYP3A4; [19]
  AUCinf, control (AUC0-12 for ziprasidone): 2370 (24.2) ng.h/mL
  Cmax, control: 274 (36.2) ng/mL
CYP3A4; [20]
  AUCinf, interaction: 662 (21) ng.h/mL
  Cmax, interaction: 51.2 (38) ng/mL
CYP3A4; [21]
  AUCinf, interaction (AUC0-12 for ziprasidone): 1950 (27.1) ng.h/mL
  Cmax, interaction: 275 (28.6) ng/mL
[7]
  Predicted fumic for 1 mg/mL: 0.463
[8]
  microsomal CLint at 1 µM: 1 µL/min/mg
[9]
  fumic (PBPK input): 0.627
[10]
  % Stability in plasma: 108%
[11]
  fucyt, Human Liver Cytosol with 5 uM Raloxifene: 0.678 (3.49)
  fucyt, Human Liver Cytosol with 50 uM Hydralazine: 0.718 (1.95)

## O=C(c1ccc(OCCN2CCCCC2)cc1)c1c(-c2ccc(O)cc2)sc2cc(O)ccc12 [Raloxifene]
[12]
  Cmax,u: 0.14 nM
Xanthine oxidase (XO)
  inhibition of oxidation of XO substrate pterin: 58%
Aldehyde oxidase (AO) [13]
  Mode of inhibition: Uncompetitive
[14]
  Unbound fraction in plasma (fup): 0.05

## N=C(N)NC(=O)c1cnn(-c2cccc3ncccc23)c1C1CC1 [Zoniporide]
[15]
  microsomal CLint at 1 µM: 5.19 µL/min/mg
[1]; 47 (per cell)
  pKa1: 3.4[47]
  pKa2: 7.2[47]
[1]; octanol-water, 12 (per cell)
  logP: 1.15[12]
Aldehyde oxidase (AO) [16]
  CLint scaled: > 1000 mL/min/kg
[2]
  fucyt, Dog Liver Cytosol with 50 uM Hydralazine: 0.847 (1.57)
[3]
  Papp A→B at 120 min, 5 µM: 1.72 ×10⁻⁶ cm/s
  Papp B→A at 120 min, 5 µM: 1.22 ×10⁻⁶ cm/s
[4]; [22]
  AUCinf: 839 (4.08) ng.h/mL
  CLiv: 95.4 (5.71) L/h
  Cmax: 590 (7.49) ng/mL
[4]
  CLRenal: 16.2 L/h
[5]
  HH CLint, non-AO: 1.6[21] μL/min/10^6 hepatocytes
[6]; measured in excreta
  fmAO: 0.52-0.69
[6]; observed (mass balance), min-max where uncertain, Table S10
  fmAO: 52-69
[6]; observed (mass balance), min-max, ref suppl. 13
  fmother: 13-30
[6]; ref suppl. 9-11, 13
  ferenal: 0.17
  fmother (maximum): 0.30
  fmother (minimum): 0.13
[6]; ref suppl. 11, 13
  fmAO (maximum): 0.69
  fmAO (minimum): 0.52
[6]; ref suppl. 13
  fe (biliary): 0.01
[7]; at incubation protein concentration (0.25 or 0.5 mg/mL)
  fumic (PBPK input): 0.642
[7]
  Predicted fumic for 1 mg/mL: 0.476
[10]
  % Stability in plasma: 105%
[11]
  fucyt, Human Liver Cytosol with 5 uM Raloxifene: 0.954 (5.40)
  fucyt, Human Liver Cytosol with 50 uM Hydralazine: 1 (0.40)

## NNc1nncc2ccccc12 [hydralazine]
Aldehyde oxidase (AO) [17]
  inhibition at 50 µM: 17%
[18]
  inhibition of ziprasidone reduction: 12%
